Experimental data from PMC12751012, “Nanoscale Direct-to-Biology Optimization and Structural Insights into Selective S. aureus TrmD Inhibitors” (Journal of Medicinal Chemistry, 2025).

Target: T1, S. aureus TrmD (Staphylococcus aureus, UniProt Q2FZ43)
T1 construct: made in house; host or cells: E. coli BL21
T1 sequence (Q2FZ43 1-245): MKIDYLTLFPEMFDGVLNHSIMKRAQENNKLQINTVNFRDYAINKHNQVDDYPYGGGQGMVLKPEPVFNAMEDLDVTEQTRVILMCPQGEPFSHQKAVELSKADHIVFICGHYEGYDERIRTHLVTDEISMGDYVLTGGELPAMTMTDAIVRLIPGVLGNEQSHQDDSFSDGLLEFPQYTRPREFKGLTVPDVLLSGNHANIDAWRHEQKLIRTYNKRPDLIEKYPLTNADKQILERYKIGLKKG
Experiment: nanoSAR direct-to-biology FP displacement screening of crude triazoles
Assay type: binding
Conditions: crude triazole at 1 μM, assuming full conversion; 500 nM TrmD, 10 nM tracer 4; read-out: % displaced tracer
Source text: Next, we conducted an S. aureus TrmD-targeting nanoSAR study. For this, alkyne 7 was reacted on a 96 nmol scale with an in-house diversity-oriented azide library (N = 320, mean pairwise Tanimoto similarity = 0.11) designed to cover a large chemical fragment space, generating a panel of 320 crude triazoles ready for FP assay investigation. The composition of the azide library is designed to be chemically diverse in several categories, including physicochemical properties such as polar surface area, lipophilicity, and the number of hydrogen bond donors and acceptors, as well as structural features like the number of aromatic rings (Figure S23). A complete list of chemical structures included in the azide library can be found in Table S4. In situ reaction conditions for CuAAC were adapted from Gehrtz et al., utilizing CuSO4, which is reduced in situ to Cu(I) by sodium ascorbate and stabilized by TBTA. Degassed water and DMSO (1:1) were used as solvents to prevent the oxidation from Cu(I) to Cu(II). For the synthesis of the triazole library, a master mix was prepared, containing all reaction components except the azides. All reactions were started by the addition of the respective azide in 24 μL at a final product concentration of 4 mM (96 nmol). Reaction mixtures were incubated for 16 h at room temperature and under an argon atmosphere in sealed 96-well plates.
For FP assay screening, we used 500 nM of S. aureus TrmD and 10 nM of tracer 4 in a total volume of 40 μL in 96-well plates. We performed control measurements and defined 10 nM of tracer 4 in buffer as 100% displacement and the DMSO control as 0% tracer displacement. […] The results of the FP screening were visualized in a waterfall plot and plate-based heatmaps (Figure , Figure S3).
Fluorescence polarization (FP) assays were performed as follows. The assays for H. influenzae TrmD have been described previously. All assays were conducted in technical triplicate using black 96-well half area plates. For the FP assays, a tracer (20 nM Cy5TPD for E. coli and H. influenzae TrmD, 10 nM tracer 4 for S. aureus TrmD) was mixed with the respective enzyme (2 μM E. coli TrmD, 2 μM H. influenzae TrmD, 500 nM S. aureus TrmD) in buffer (E. coli and H. influenzae TrmD: 50 mM HEPES, 500 mM NaCl, 5% Glycerol, pH 7.5, S. aureus TrmD: 40 mM Tris HCl, 100 mM NaCl, 10 mM MgCl2, 5% Glycerol, pH 7.5). The compounds were added in varying concentrations for K D-value determination. […] The Z-factor for tracer 4 was determined by measuring 48 replicates of the free tracer (positive controls, PC) and 48 replicates of a mixture of enzyme and tracer (negative controls, NC). The Z-factor is defined in terms of the means (μ) and standard deviations (σ) of the positive and negative controls and calculated as Z = 1–(3*(σnc + σpc)/(μnc–μpc)). […] Polarization values (mP) were determined from polarization-specific parallel and orthogonal fluorescence intensities. K D-values were calculated in GraphPad Prism 8.0.1 using the four-parameter Hill equation: y(% tracer bound) = bottom + ([ligand]-slope) × (top–bottom)/([ligand]-slope + K Dslope).
A commercial azide diversity library (Enamine) containing 320 azides at a concentration of 100 mM in DMSO in a 96-well tube rack was employed for this nanoSAR study. For the reaction of the azides with alkyne 7 via CuAAC, a master mix was prepared. […] The solvents were degassed with argon to avoid oxidation of the copper(I) during the reaction. To each well of a 96-well PCR plate (Applied Biosystems MicroAmp) were added 23 μL of the master mix and 1 μL of the 100 mM azide stock. The final concentrations in the Mastermix were: 8.7 mM sodium ascorbate (8.3 mM in reaction well), 1.1 mM TBTA (1.0 mM in reaction well), 4.3 mM 7 (4.1 mM in reaction well), 1.3 mM CuSO4×5 H2O (1.2 mM in reaction well).

SMILES | inhibition at 1 µM
O=c1[nH]cnc2[nH]cc(-c3cn(C[C@@H]4CC[C@H]4C(F)(F)F)nn3)c12 [Compound 01C12, FC(F)(F)[C@H]1[C@H](CN2N=NC(C=3C=4C(=O)NC=NC4NC3)=C2)CC1] | 47%
COC(=O)[C@@H]1CCC[C@H](n2cc(-c3c[nH]c4nc[nH]c(=O)c34)nn2)C1 [Compound 01D01, O=C(OC)[C@H]1C[C@@H](N2N=NC(C=3C=4C(=O)NC=NC4NC3)=C2)CCC1] | 33%
O=c1[nH]cnc2[nH]cc(-c3cn(C[C@H]4OCCOC45CCC5)nn3)c12 [Compound 01D02, O=C1NC=NC=2NC=C(C=3N=NN(C3)C[C@H]4OCCOC45CCC5)C12] | 61%
O=c1[nH]cnc2[nH]cc(-c3cn([C@H]4CC[C@@H]4O)nn3)c12 [Compound 01D04, O=C1NC=NC=2NC=C(C=3N=NN(C3)[C@@H]4[C@@H](O)CC4)C12] | 21%
O=c1[nH]cnc2[nH]cc(-c3cn(-c4cccc5cnccc45)nn3)c12 [Compound 01D05, O=C1NC=NC=2NC=C(C=3N=NN(c4c5c(cncc5)ccc4)C3)C12] | 16%
CCc1nnc(Cn2cc(-c3c[nH]c4nc[nH]c(=O)c34)nn2)o1 [Compound 01D06, O=C1NC=NC=2NC=C(C=3N=NN(C3)CC=4OC(=NN4)CC)C12] | 31%
CCOc1ccc(-n2cc(-c3c[nH]c4nc[nH]c(=O)c34)nn2)cc1 [Compound 01D07, O=C1NC=NC=2NC=C(C=3N=NN(c4ccc(OCC)cc4)C3)C12] | 19%
Cc1ccccc1-n1cc(-c2c[nH]c3nc[nH]c(=O)c23)nn1 [Compound 01D08, O=C1NC=NC=2NC=C(C=3N=NN(c4c(cccc4)C)C3)C12] | 9%
O=c1[nH]cnc2[nH]cc(-c3cn(CCn4cccn4)nn3)c12 [Compound 01D09, O=C1NC=NC=2NC=C(C=3N=NN(C3)CCN4N=CC=C4)C12] | 39%
Cc1ccc([C@@H](O)[C@H](C)n2cc(-c3c[nH]c4nc[nH]c(=O)c34)nn2)cc1 [Compound 01D10, O=C1NC=NC=2NC=C(C=3N=NN(C3)[C@H]([C@H](O)c4ccc(cc4)C)C)C12] | 49%
COC(=O)c1sccc1-n1cc(-c2c[nH]c3nc[nH]c(=O)c23)nn1 [Compound 01D11, S1C(C(=O)OC)=C(N2N=NC(C=3C=4C(=O)NC=NC4NC3)=C2)C=C1] | 21%
COC(=O)c1cnoc1Cn1cc(-c2c[nH]c3nc[nH]c(=O)c23)nn1 [Compound 01D12, O=C(OC)C1=C(ON=C1)CN2N=NC(C=3C=4C(=O)NC=NC4NC3)=C2] | 38%
CN(C)c1ccc(-n2cc(-c3c[nH]c4nc[nH]c(=O)c34)nn2)cc1 [Compound 01E01, O=C1NC=NC=2NC=C(C=3N=NN(c4ccc(N(C)C)cc4)C3)C12] | 33%
C[C@H](c1ccccc1F)n1cc(-c2c[nH]c3nc[nH]c(=O)c23)nn1 [Compound 01E02, Fc1c(cccc1)[C@H](N2N=NC(C=3C=4C(=O)NC=NC4NC3)=C2)C] | 50%
CCc1nc(Cn2cc(-c3c[nH]c4nc[nH]c(=O)c34)nn2)cs1 [Compound 01E03, S1C(=NC(=C1)CN2N=NC(C=3C=4C(=O)NC=NC4NC3)=C2)CC] | 75%
O=c1[nH]cnc2[nH]cc(-c3cn(Cc4cn5ccccc5n4)nn3)c12 [Compound 01E04, O=C1NC=NC=2NC=C(C=3N=NN(C3)CC=4N=C5N(C4)C=CC=C5)C12] | 46%
COC(=O)Cn1cc(-c2c[nH]c3nc[nH]c(=O)c23)nn1 [Compound 01E05, O=C(OC)CN1N=NC(C=2C=3C(=O)NC=NC3NC2)=C1] | 11%
COc1ccc(-n2cc(-c3c[nH]c4nc[nH]c(=O)c34)nn2)cc1OC [Compound 01E06, O=C1NC=NC=2NC=C(C=3N=NN(c4cc(OC)c(OC)cc4)C3)C12] | 19%

SMILES | inhibition at 1 µM
O=c1[nH]cnc2[nH]cc(-c3cn(CCN4CCOCC4)nn3)c12 [Compound 01E07, O=C1NC=NC=2NC=C(C=3N=NN(C3)CC[NH+]4CCOCC4)C12] | 34%
CN(C)CCCn1cc(-c2c[nH]c3nc[nH]c(=O)c23)nn1 [Compound 01E08, O=C1NC=NC=2NC=C(C=3N=NN(C3)CCC[NH+](C)C)C12] | 35%
CCNC(=O)Cn1cc(-c2c[nH]c3nc[nH]c(=O)c23)nn1 [Compound 01E09, O=C1NC=NC=2NC=C(C=3N=NN(C3)CC(=O)NCC)C12] | 33%
Cn1cc(-n2cc(-c3c[nH]c4nc[nH]c(=O)c34)nn2)cn1 [Compound 01E10, O=C1NC=NC=2NC=C(C=3N=NN(C=4C=NN(C4)C)C3)C12] | 17%
Cc1csc(C[C@H](C)n2cc(-c3c[nH]c4nc[nH]c(=O)c34)nn2)n1 [Compound 01E11, S1C(=NC(=C1)C)C[C@@H](N2N=NC(C=3C=4C(=O)NC=NC4NC3)=C2)C] | 31%
O=c1[nH]cnc2[nH]cc(-c3cn(-c4ccccc4-c4ccccc4)nn3)c12 [Compound 01E12, O=C1NC=NC=2NC=C(C=3N=NN(c4c(c5ccccc5)cccc4)C3)C12] | 34%
N#CC1(Cn2cc(-c3c[nH]c4nc[nH]c(=O)c34)nn2)CCCC1 [Compound 01F01, O=C1NC=NC=2NC=C(C=3N=NN(C3)CC4(C#N)CCCC4)C12] | 74%
C[C@@H](C(=O)Nc1ccccc1)n1cc(-c2c[nH]c3nc[nH]c(=O)c23)nn1 [Compound 01F02, O=C1NC=NC=2NC=C(C=3N=NN(C3)[C@H](C(=O)Nc4ccccc4)C)C12] | 28%
CS(=O)(=O)NCCn1cc(-c2c[nH]c3nc[nH]c(=O)c23)nn1 [Compound 01F03, S(=O)(=O)(NCCN1N=NC(C=2C=3C(=O)NC=NC3NC2)=C1)C] | 62%
Cn1cc(Cn2cc(-c3c[nH]c4nc[nH]c(=O)c34)nn2)cn1 [Compound 01F04, O=C1NC=NC=2NC=C(C=3N=NN(C3)CC=4C=NN(C4)C)C12] | 57%
NC(=O)c1cc(-n2cc(-c3c[nH]c4nc[nH]c(=O)c34)nn2)ccn1 [Compound 01F05, O=C(N)c1nccc(N2N=NC(C=3C=4C(=O)NC=NC4NC3)=C2)c1] | 16%
O=c1[nH]cnc2[nH]cc(-c3cn(Cc4cnc(C(F)(F)F)s4)nn3)c12 [Compound 01F06, S1C(=NC=C1CN2N=NC(C=3C=4C(=O)NC=NC4NC3)=C2)C(F)(F)F] | 72%
Cc1nc2ccc(-n3cc(-c4c[nH]c5nc[nH]c(=O)c45)nn3)cc2s1 [Compound 01F07, S1c2c(N=C1C)ccc(N3N=NC(C=4C=5C(=O)NC=NC5NC4)=C3)c2] | 11%
O=c1[nH]cnc2[nH]cc(-c3cn(-c4ccc5c(c4)CCC5)nn3)c12 [Compound 01F08, O=C1NC=NC=2NC=C(C=3N=NN(c4cc5c(cc4)CCC5)C3)C12] | 5%
Cc1nc(Cn2cc(-c3c[nH]c4nc[nH]c(=O)c34)nn2)cs1 [Compound 01F09, S1C(=NC(=C1)CN2N=NC(C=3C=4C(=O)NC=NC4NC3)=C2)C] | 53%
O=c1[nH]cnc2[nH]cc(-c3cn(Cc4cccc5ccccc45)nn3)c12 [Compound 01F10, O=C1NC=NC=2NC=C(C=3N=NN(C3)Cc4c5c(ccc4)cccc5)C12] | 84%
C[C@@H](n1cc(-c2c[nH]c3nc[nH]c(=O)c23)nn1)C12CC(CO1)C2 [Compound 01F11, O=C1NC=NC=2NC=C(C=3N=NN(C3)[C@@H](C45OCC(C4)C5)C)C12] | 26%
